The results in this text go back to patent US20210393645A1, “TREATMENT FOR PROGRESSIVE MULTIPLE SCLEROSIS” (UTI LIMITED PARTNERSHIP, priority 2016, published 2021).

Counter-ions that a name gives are not always drawn. Positions of bridges follow the written chain, without caps; N, C: chain ends. Non-standard residues stand in square brackets, D forms with d. Residues, ends and D or L forms follow the SMILES beside them. *: point of attachment. Ileψ(thiazoline)Cys = CC[C@H](C)[C@H](N)C1=N[C@H](C(=O)*)CS1; dOrn = NCCC[C@@H](N)C(=O)O

The first test deals with human neurons. Put plainly: Iron (FeSO4) mediated neurotoxicity screening, MAP-2 positive neurons counted. The class given is cell-based.
Conditions: not given
On the procedure:
Human neurons were isolated from brain tissues of therapeutically aborted 15-20 week old fetuses, in accordance with ethics approval of the University of Calgary ethics committee, after written informed consent of the pregnant donors. Neurons were isolated as previously described (Vecil et al., 2000) brain specimens were washed in phosphate buffered saline (PBS) to remove blood, followed by removal of meninges. […] Thereafter, the digestion was stopped by addition of 4 ml fetal calf serum (FCS). […] Cells were cultured in feeding medium of minimal essential medium (MEM) supplemented with 10% fetal bovine serum (FBS), 1 μM sodium pyruvate, 10 μM glutamine, 1× non-essential amino acids, 0.1% dextrose and 1% penicillin/streptomycin (all culture supplements from Invitrogen, Burlington, Canada). […] For experiments, the neuron-enriched cultures were retrypsinized and cells were plated in poly-L-ornithine pre-coated 96-well plates at a density of 100,000 cells/well in 100 μl of the complete medium supplemented with cytosine arabinoside. […] All conditions were performed in quadruplicates. A day later cells were fixed using 4% paraformaldehyde (PFA) and stored in PBS in 4° C.
Briefly, there were 80 compounds located in specific wells on each plate (e. g. B07). […] Each compound was supplied at a concentration of 10 mM dissolved in DMSO.
After filtering with a 0.2 μm filter, FeSO4 was added to cells in a final concentration of 25-50 μM in a volume of 50 μl medium to the cells. Rotenone was dissolved in dimethyl sulfoxide (DMSO) and used in a final concentration of 10 μM.
Staining was performed at room temperature. A blocking buffer was first introduced for 1 h followed by incubation with primary antibody overnight in 4° C.
Cell nuclei were stained with Hoechst S769121 (nuclear yellow). Cells were stored in 4° C. in the dark before imaging.
Images were taken using the automated ImageXpress® imaging system (Molecular Devices, Sunnyvale, Calif.) through a 10x objective microscope lens, displaying 4 or 9 sites per well. […] Cells were defined according to fluorescence intensity and size at different wavelengths. Data from all sites per well were averaged to one data point.
Neurons were pre-incubated with each compound for 1 h followed by application of FeSO4.
With `CC(C)[N+]1(C)[C@@H]2CC[C@H]1CC(OC(=O)C(CO)c1ccccc1)C2.[Br-]` (stereo partly drawn) [IPRATROPIUM BROMIDE], the “Drug % control (mean): number of neurons normalized to untreated control” value amounted to 63.39%. For `N[C@@H]1C[C@H]1c1ccccc1.N[C@H]1C[C@@H]1c1ccccc1.O=S(=O)(O)O` [TRANYLCYPROMINE SULFATE], the “Drug % control (mean): number of neurons normalized to untreated control” value was 21.59%.

Still in this test, the particulars now being: Homo sapiens, Neuron, 24 h, read-out: Drug % control (mean): number of neurons normalized to untreated control.
Consider `O=P1(N(CCCl)CCCl)NCCCO1` (stereo not drawn) [CYCLOPHOSPHAMIDE HYDRATE], for which the viability at 10 µM is 6.39%. The same measure, in the same setting: the same measure for `COc1cc2c(c(OC)c1OC)-c1ccc(OC)c(=O)cc1[C@@H](NC(C)=O)CC2` [COLCHICINE]: 3.12%; for `CN[C@H](CC(C)C)C(=O)N[C@H]1C(=O)N[C@@H](CC(N)=O)C(=O)N[C@H]2C(=O)N[C@H]3C(=O)N[C@H](C(=O)N[C@H](C(=O)O)c4cc(O)cc(O)c4-c4cc3ccc4O)[C@H](O)c3ccc(c(Cl)c3)Oc3cc2cc(c3O[C@@H]2O[C@H](CO)[C@@H](O)[C@H](O)[C@H]2O[C@H]2C[C@](C)(N)[C@H](O)[C@H](C)O2)Oc2ccc(cc2Cl)[C@H]1O` [VANCOMYCIN HYDROCHLORIDE]: 11.7%.

Staying with this test, now noted: Homo sapiens, Neuron; drug 10 μM 1 h before FeSO4 25 or 50 μM; MAP-2 neurons after 24 h; read-out: Drug % control (mean): number of neurons normalized to untreated control.
Take `Nc1ccc(C(=O)O)cc1` [POTASSIUM p-AMINOBENZOATE]: the viability at 10 µM amounted to 44.5%. On to `CN1CCC(OC(c2ccccc2)c2ccccc2)CC1` [HYDROCHLORIDE], for which the viability at 10 µM was determined as 4.61%. Take `O=C1C(CC[S+]([O-])c2ccccc2)C(=O)N(c2ccccc2)N1c1ccccc1` (stereo not drawn) [SULFINPYRAZONE]: the viability at 10 µM came to 46.5%. The same measure, in the same setting: the same measure for `CN[C@@H](C)[C@@H](O)c1ccccc1` [PSEUDOEPHEDRINE HYDROCHLORIDE]: 26.7%; for `CCn1cc(C(=O)O)c(=O)c2cc(F)c(N3CCNCC3)cc21` [NORFLOXACIN]: 13.6%. The same measure, in the same setting: the same measure for `C=C[C@H]1C[N@@]2CC[C@H]1C[C@H]2[C@H](O)c1ccnc2ccc(OC)cc12` [QUININE SULFATE]: 21.3%; for `Nc1ccc(/N=N/c2ccccc2)c(N)n1` [PHENAZOPYRIDINE HYDROCHLORIDE]: 101%.

As to `CC(=O)Nc1ccc(O)cc1` [ACETAMINOPHEN], the viability at 10 µM stood at 35.1%. On the same count and under the same terms, the same measure for `COc1c2occc2cc2ccc(=O)oc12` [METHOXSALEN]: 59%; for `CC(C)NCC(O)COc1cccc2[nH]ccc12` (stereo not drawn) [PINDOLOL]: 62.6%. The same measure, in the same setting: with `Cc1cc(NS(=O)(=O)c2ccc(N)cc2)no1` [SULFAMETHOXAZOLE] the figure was 16.2%; with `COc1ccc2c(c1)[C@]13CCCC[C@@H]1[C@H](C2)N(C)CC3` [DEXTROMETHORPHAN HYDROBROMIDE], 3.49%. As to `CCOC(=O)[C@H](CCc1ccccc1)N[C@@H](C)C(=O)N1CCC[C@H]1C(=O)O` [ENALAPRIL MALEATE], the viability at 10 µM was found to be 41%. Same read-out and setting: with `CC(C)NCC(O)COc1ccc(CC(N)=O)cc1` (stereo not drawn) [ATENOLOL] the figure was 43.4%.

Take `OCCN1CCN(CCCN2c3ccccc3Sc3ccc(C(F)(F)F)cc32)CC1` [FLUPHENAZINE HYDROCHLORIDE]: the viability at 10 µM turned out to be 12.1%. The same measure, in the same setting: the same measure for `CN(C)C(=O)Oc1cccc([N+](C)(C)C)c1` [NEOSTIGMINE BROMIDE]: 44.8%; for `C[C@H]1COc2c(N3CCN(C)CC3)c(F)cc3c(=O)c(C(=O)O)cn1c23` [LEVOFLOXACIN]: 56.4%. Still for that read-out and setting: with `CCCc1cc(=O)[nH]c(=S)[nH]1` [PROPYLTHIOURACIL] the figure was 35.9%; with `CC1(C)S[C@@H]2[C@H](NC(=O)[C@H](N)c3ccc(O)cc3)C(=O)N2[C@H]1C(=O)O` [AMOXICILLIN], 6.41%.

For `Cc1onc(-c2ccccc2Cl)c1C(=O)N[C@@H]1C(=O)N2[C@@H]1SC(C)(C)[C@@H]2C(=O)O` [CLOXACILLIN SODIUM], the viability at 10 µM is 28.4%.

With `CN(C)C(=O)C(CCN1CCC(O)(c2ccc(Cl)cc2)CC1)(c1ccccc1)c1ccccc1` [LOPERAMIDE HYDROCHLORIDE], the viability at 10 µM was determined as 55.5%.

Take `CC(C)(C)NC[C@H](O)COc1nsnc1N1CCOCC1` [TIMOLOL MALEATE]: the viability at 10 µM came to 11.1%. On to `NC(=O)c1cnccn1` [PYRAZINAMIDE], for which the viability at 10 µM stood at 67.2%.

As to `O=C(O)c1cc2cc(Cl)ccc2[nH]1` [5-CHLOROINDOLE-2-CARBOXYLIC ACID], the viability at 10 µM came to 37.3%. The same measure, in the same setting: with `CC(C)Cc1ccc(C(C)C(=O)O)cc1` (stereo not drawn) [IBUPROFEN] the figure was 2.48%. Same read-out and setting: the same measure for `CCCc1nn(C)c2c(=O)[nH]c(-c3cc(S(=O)(=O)N4CCN(C)CC4)ccc3OCC)nc12`: 49.3%. Turning to `O=C(O)c1cc(-c2ccc(F)cc2F)ccc1O` [DIFLUNISAL], the viability at 10 µM is 4.12%. Still for that read-out and setting: with `C[N+](C)(C)CCOC(N)=O` [CARBACHOL] the figure was 8.87%; with `Nc1nc2nc[nH]c2c(=S)[nH]1` [THIOGUANINE], 21.7%; with `CCOC(=O)C1=C(COCCN)NC(C)=C(C(=O)OC)C1c1ccccc1Cl` (stereo not drawn) [AMLODIPINE BESYLATE], 93.1%. On the same count and under the same terms, the same measure for `CCC1(C)CC(=O)NC1=O` (stereo not drawn) [ETHOSUXIMIDE]: 74.3%. On the same count and under the same terms, with `Cc1cnc(NC(=O)C2=C(O)c3ccccc3S(=O)(=O)N2C)s1` [MELOXICAM] the figure was 59.5%; with `Cc1ccccc1C(OCCN(C)C)c1ccccc1` (stereo not drawn) [ORPHENADRINE CITRATE], 54.5%; with `CS(=O)(=O)OCCCCOS(C)(=O)=O` [BUSULFAN], 13.3%.

As for `CN(C)CCC=C1c2ccccc2CCc2ccccc21` [AMITRIPTYLINE HYDROCHLORIDE], the viability at 10 µM is 34.8%.

Consider `CC(CCc1ccccc1)NC(C)C(O)c1ccc(O)cc1` (stereo not drawn) [NYLIDRIN HYDROCHLORIDE], for which the viability at 10 µM was found to be 50.1%. Same read-out and setting: the same measure for `COc1ccc(Cl)cc1C(=O)NCCc1ccc(S(=O)(=O)NC(=O)NC2CCCCC2)cc1` [GLYBURIDE]: 45.2%.

`CN(C)CCc1c[nH]c2ccc(C[C@H]3COC(=O)N3)cc12` [ZOLMITRIPTAN]: the viability at 10 µM was 54.9%.

Regarding `Cc1cc(N)c2ccccc2[n+]1CCCCCCCCCC[n+]1c(C)cc(N)c2ccccc21` [DEQUALINIUM CHLORIDE], the viability at 10 µM turned out to be 10.5%. Same read-out and setting: with `CCN(CC)CCNC(=O)c1cc(Cl)c(N)cc1OC` [METOCLOPRAMIDE HYDROCHLORIDE] the figure was 37.9%; with `COC(=O)[C@@H]1[C@H]2C[C@H]3c4[nH]c5ccccc5c4CCN3C[C@@H]2CC[C@@H]1O` [YOHIMBINE HYDROCHLORIDE], 100%.

Turning to `NNCCc1ccccc1` [PHENELZINE SULFATE], the viability at 10 µM was 46.7%. On the same count and under the same terms, the same measure for `CC[C@H](C)C(=O)O[C@H]1C[C@H](O)C=C2C=C[C@H](C)[C@H](CC[C@@H](O)C[C@@H](O)CC(=O)O)[C@H]21` [PRAVASTATIN SODIUM]: 40.5%. The same measure, in the same setting: the same measure for `CC(=O)/N=c1/sc(S(N)(=O)=O)nn1C` [METHAZOLAMIDE]: 54.3%.

With `NCC(CC(=O)O)c1ccc(Cl)cc1` (stereo not drawn) [BACLOFEN], the viability at 10 µM worked out at 35.8%. The same measure, in the same setting: the same measure for `CN(Cc1cnc2nc(N)nc(N)c2n1)c1ccc(C(=O)N[C@@H](CCC(=O)O)C(=O)O)cc1` [METHOTREXATE]: 43.3%; for `CCCCNC(=O)NS(=O)(=O)c1ccc(C)cc1` [TOLBUTAMIDE]: 9.09%. With `CC[C@H](C)[C@H](N)C1=N[C@H](C(=O)N[C@@H](CC(C)C)C(=O)N[C@H](CCC(=O)O)C(=O)N[C@H](C(=O)N[C@H]2CCCCNC(=O)[C@H](CC(N)=O)NC(=O)[C@@H](CC(=O)O)NC(=O)[C@H](Cc3cnc[nH]3)NC(=O)[C@@H](Cc3ccccc3)NC(=O)[C@H]([C@@H](C)CC)NC(=O)[C@@H](CCCN)NC2=O)[C@@H](C)CC)CS1` [BACITRACIN] ({Ileψ(thiazoline)Cys}-L[dE]IK[dOrn]I[dF]H[dD]N; lactam 4-C), the viability at 10 µM was 5.04%.

For `OCCN1CCN(CCCN2c3ccccc3Sc3ccc(Cl)cc32)CC1` [PERPHENAZINE], the viability at 10 µM amounted to 78.8%. Turning to `CC(=O)Oc1ccccc1C(=O)O` [ASPIRIN], the viability at 10 µM came out at 68.2%.

The same test, now with this note: drug 10 μM 1 h before FeSO4 25 or 50 μM; MAP-2 neurons after 24 h.
In the case of `Nc1nc(=O)c2c([nH]1)NCC(CNc1ccc(C(=O)N[C@@H](CCC(=O)[O-])C(=O)[O-])cc1)N2C=O.[Ca+2]` (stereo partly drawn) [LEUCOVORIN CALCIUM], the “Drug % control (mean): number of neurons normalized to untreated control” value was determined as 24.84%. With `NCC[C@H](O)C(=O)N[C@@H]1C[C@H](N)[C@@H](O[C@H]2O[C@H](CN)[C@@H](O)[C@H](O)[C@H]2O)[C@H](O)[C@H]1O[C@H]1O[C@H](CO)[C@@H](O)[C@H](N)[C@H]1O.O=S(=O)(O)O.O=S(=O)(O)O` [AMIKACIN SULFATE], the “Drug % control (mean): number of neurons normalized to untreated control” value is listed as 35.92%.
